The record followed here is patent publication US20190284635A1, “METHOD FOR THE PROGNOSIS AND/OR TREATMENT OF ACUTE PROMYELOCYTIC LEUKEMIA” (EPI-C S.R.L., priority 2016, published 2019).

Data set [1] relates to NB4 cells. The data set is described as follows: Cell death induction in NB4 cells. The conditions noted are these: for % Cell death NB4 cells: 3 μM, 30 h; for cytotoxicity at 3 µM: Homo sapiens, NB-4, 30 h. It is filed as cell-based, human. As for the experimental part: (§1) For cell cycle analyses, the cells were plated (2×10^5 cells/mL) and after stimulation (performed as indicated in the text) were harvested, centrifuged at 1200 rpm for 5 minutes and resuspended in 500 μL of a hypotonic solution containing 1×PBS, Sodium Citrate 0.1%, 0.1% NP-40, RNAase A and […] Propidium Iodide (PI) (a dye that intercalates between the DNA bases, marking the DNA content in the cells and emitting a fluorescent signal that enables the analysis). After 30′ at room temperature (RT) in the dark, samples were acquired by FACS-Calibur (BD Bioscences, San Jose, Calif., USA) using CellQuest software (BD Biosciences). The percentage in different phases of the cell cycle was determined by ModFit LT V3 software (Verity). All experiments were performed in triplicate.
When tested in leukemia NB4 cells at 3 μM for 30 h, MC2884 induced 52.1% cell death. Some MC2884 analogues have been tested to obtain SAR data (Table 8).

The next data set concerns SHSY5Y cells. The data set is described as follows: Cell death induction in SHSY5Y cells. It counts as cell-based. Conditions: 48 h; for cytotoxicity at 3 µM: Homo sapiens, SH-SY5Y; for cell death induction in SHSY5Y cells, in words, relative to MC2884: 3 μM. On the procedure: as §1
When tested in neuroblastoma SHSY5Y cells at 3 μM for 48 h, MC2884 and its analogues furnished similar trend of death induction as in NB4 cells (Table 7). In general, the SHSY5Y cell line is less sensitive to the tested molecules than NB4 cells.

Data set [2] deals with NB4 cells. Description: Combination of ABT-737 with MC2884, pre-G1 cells. It is filed as cell-based, human. The conditions noted are these: ABT-737 with addition of MC2884 at concentrations that alone induced little apoptosis.
Description: For cell cycle analyses, the cells were plated (2×10^5 cells/mL) and after stimulation (performed as indicated in the text) were harvested, centrifuged at 1200 rpm for 5 minutes and resuspended in 500 μL of a hypotonic solution containing 1×PBS, Sodium Citrate 0.1%, 0.1% NP-40, RNAase A and 50 mg/mL Propidium Iodide (PI) (a dye that intercalates between the DNA bases, marking the DNA content in the cells and emitting a fluorescent signal that enables the analysis). After 30' at room temperature (RT) in the dark, samples were acquired by FACS-Calibur (BD Bioscences, San Jose, Calif., USA) using CellQuest software (BD Biosciences). The percentage in different phases of the cell cycle was determined by ModFit LT V3 software (Verity). All experiments were performed in triplicate.
The nature of data set [3]: Mouse terminal IV PK study. It counts as in vivo. The conditions noted are these: 2 mg/kg, male CD1 mice, plasma. As for the experimental part: (§2) Compound was administered both intravenously and intraperitoneally to mice. Blood samples were collected at 8 time points over 24 hr and plasma analysed by LC-MS/MS to determine the concentration of compound.
(§3) The plasma time concentration profile was calculated with the main PK parameters (Co, AUClast, t, VD, and CL).
For iv dosing. Compound was dissolved at 0.4 mg/mL. This provided a dose of 2 mg free base material/kg when administered iv in a 5 mL/kg dosing volume.
Compound MC2884 was given iv via the lateral tail vein at a dose of 2 mg/kg to a group of 24 normally fed male CD1 mice in a 5 mL/kg injection volume. Terminal blood samples (>230 μL) were taken under CO2 from groups of 3 mice at each of 8 time-points post dose (0.083, 0.25, 0.5, 1, 2, 4, 8 and 24 h) and placed into heparinized tubes. Samples were placed on ice for no longer than 30 min before centrifugation (10,000 rpm×3 min). Plasma samples (>100 μL) were collected into fresh tubes and frozen on dry ice. Number of plasma samples=24. Consistent IV profiles were obtained, with little variability across the time-points (the average profile is shown in the second spreadsheet). […] FIG. 17-18 display results for IV-IP administration of MC2884 in normal mice.

Data set [4] concerns immortalized non-cancer cell systems. The data set is described as follows: Cytotoxicity on immortalized non-cancer cells. Conditions: at the dose effective on cancer cells.
Description: Colorimetric exclusion: cells (2×10^5 cells/mL) were plated in multiwells and in triplicate.
A short description of data set [5]: Mouse terminal IP PK study. It is filed as in vivo, male CD1 mice. Conditions: plasma, 2 mg/kg. On the procedure: as §2, §3
For ip dosing. After formulation assessment, MC2884 was dissolved at 0.2 mg/mL. This provided a dose of 2 mg free base material/kg when administered ip in a 10 mL/kg dosing volume.
Compound MC2884 was given ip at a dose of 2 mg/kg to a group of 24 normally fed male CD1 mice in a 10 mL/kg injection volume. Terminal blood samples (>230 μL) were taken under CO2 from groups of 3 mice at each of 8 time-points post dose (0.083, 0.25, 0.5, 1, 2, 4, 8 and 24 h) and placed into heparinized tubes. Samples were placed on ice for no longer than 30 min before centrifugation (10,000 rpm×3 min). Plasma samples (>100 μL) were collected into fresh tubes and frozen on dry ice. All samples were stored at −20° C. Number of plasma samples=24. FIG. 17-18 display results for IV-IP administration of MC2884 in normal mice

A further data set has as its target T1, CYP3A4 (Homo sapiens, UniProt P08684).
T1 construct: from tissue; host or cells: human liver microsomes
Description: Cytochrome P450 inhibition, CYP3A4, human liver microsomes. It counts as in vitro ADME. The conditions noted are these: at 25 μM, probe midazolam. Background: Liver microsomes are vesicles of endoplasmic reticulum, rich in cytochrome P450 enzymes.

A short description of data set [6]: Stability of MC2884 in cell culture medium (DMEM, RP-HPLC). Conditions: 50 μM in DMEM. It counts as physicochemical. On the procedure:
The compound was dissolved in DMEM at 50 μM and its concentration was measured by RP-HPLC using a ONYX 50×2 mm ID C18 column operating at 600 μL/min. The gradient applied was from 1% solvent B to 70% solvent B in 10 minutes. Solvent A was water with added 0.1% trifluoroacetic acid (TFA) and solvent B was acetonitrile with added 0.1% TFA. The eluate was monitored using a diode array detector with wavelengths set between 200-320 nm. The compound was eluted at 11.1 min. Peak integration was carried out on the chromatogram extracted at […], which is one of the compound absorbance maxima. A calibration curve was built by injecting solutions of the compound in DMSO at concentrations ranging between 1.5 μM and 200 μM. After incubation in DMEM compound concentration was determined at time points ranging between 0 and 72 hrs. As shown, half of compound was degraded after 10h. At 72 hrs it was fully degraded under these conditions.

Data set [7] relates to APL-Rs (pt#7 and 8) blasts. Description: Cell death in ex vivo APL-R blasts. Conditions: pt#7 and 8, 24 h. It counts as cell-based, human. As for the experimental part:
Blasts cells were purified by the Ficoll-Hypaque gradient separation method (GE Healthcare). RNA was obtained by using TRIzol (Life Technologies) according to the manufacturer's recommendations. Isolation of genomic DNA has complied the FlexiGene DNA protocol (Qiagen).
To further strengthen our findings in primary human cells, apoptosis was evaluated in 6 AML patient blasts (FIG. 10C).

Data set [8] deals with acetyl-H3K9-14, H3K27me3/2, EZH2 in NB4 cells. Description: Western blot of histone marks and EZH2 in NB4 cells. It is filed as cell-based, human. As for the experimental part:
The procedures were performed as described in (31,34). Primary antibodies used were: H3K27me3 (Abcam); H3K9-14ac (Millipore); H3K27ac, EZH2, PARP, TRAIL, RIP (Abcam); BID, BAX, BCL2 (Cell Signaling); BCL-XL (BD Biosciences); ERKs (Santa Cruz) and α-tubulin (Sigma) were used to normalize the total protein extracts, while H1 (Abcam) to normalize histone extracts.
On the technique in general: Immunoblotting shows a protein as a band on a membrane.

T1 sequence (P08684 whole entry): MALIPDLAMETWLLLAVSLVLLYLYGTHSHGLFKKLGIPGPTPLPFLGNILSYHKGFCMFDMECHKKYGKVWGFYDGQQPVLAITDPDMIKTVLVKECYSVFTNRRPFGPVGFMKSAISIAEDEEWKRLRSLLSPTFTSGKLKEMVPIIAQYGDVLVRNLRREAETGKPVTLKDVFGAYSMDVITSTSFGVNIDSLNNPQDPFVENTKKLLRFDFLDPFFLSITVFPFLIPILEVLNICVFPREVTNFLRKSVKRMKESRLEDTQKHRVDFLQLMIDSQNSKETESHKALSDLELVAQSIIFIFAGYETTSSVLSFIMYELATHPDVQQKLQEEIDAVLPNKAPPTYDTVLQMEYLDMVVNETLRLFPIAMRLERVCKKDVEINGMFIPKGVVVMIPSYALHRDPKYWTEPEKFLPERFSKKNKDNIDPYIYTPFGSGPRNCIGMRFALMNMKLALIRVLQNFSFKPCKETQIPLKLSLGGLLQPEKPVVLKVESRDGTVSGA

Take `O=C1/C(=C/c2cccc(Br)c2)CN(CC(=O)c2ccccc2)C/C1=C\c1cccc(Br)c1` [MC3207, 3,5-bis(3-bromobenzylidene)-1-(2-oxo-2-phenylethyl)piperidin-4-one]: in the data set with NB4 cells [1], the “% Cell death NB4 cells” value is given as 38.0% and the cytotoxicity at 3 µM was 38%. The compound also gave a cytotoxicity at 3 µM in the data set on SHSY5Y cells of 7%.
Regarding `CN(C)CC[C@H](CSc1ccccc1)Nc1ccc(S(=O)(=O)NC(=O)c2ccc(N3CCN(Cc4ccccc4-c4ccc(Cl)cc4)CC3)cc2)cc1[N+](=O)[O-]` [ABT-737], the “cell death with ABT-737 plus MC2884” value with NB4 cells [2] was “up to 60%”.
With `O=C1/C(=C/c2cccc(Br)c2)COC/C1=C\c1cccc(Br)c1` [MC2912, 3,5-bis(3-bromobenzylidene)dihydro-2H-pyran-4(3H)-one], the results for the cytotoxicity at 3 µM with NB4 cells [1] and in the data set with SHSY5Y cells were 4.1% and 1%, respectively.
The compound `O=C1/C(=C/c2cccc(Br)c2)CN(Cc2ccccc2)C/C1=C\c1cccc(Br)c1` [MC2884, 1-benzyl-3,5-bis(3-bromobenzylidene)piperidin-4-one] yielded an average half-life in data set [3] of 4.58 h. Besides, the area under the curve (AUC) in [3] (mouse) was 13300 ng·h/mL; in data set [5] (mouse, ip, male CD1 mice), 18400 ng·h/mL. In addition, the “cytotoxicity on non-cancer cells” value in data set [4] is “low cytotoxicity”. The same compound showed a cytotoxicity at 3 µM with NB4 cells [1] of 52.1%. In addition, the bioavailability in data set [5] (male, CD1, mouse, dose route IP, time frame 0-inf) came to 140%. Moreover, at CYP3A4, the CYP3A4 % inhibition was 45%. In addition, the “time for total degradation in culture medium” value in data set [6] is 72 h.
As for `CN1C/C(=C\c2cccc(Br)c2)C(=O)/C(=C/c2cccc(Br)c2)C1` [MC2914, 3,5-bis(3-bromobenzylidene)-1-methylpiperidin-4-one], in the data set with NB4 cells [1], the “% Cell death NB4 cells” value is recorded as 36.0% and the cytotoxicity at 3 µM was determined as 36%. In addition, in the data set with SHSY5Y cells, the “cell death induction in SHSY5Y cells, in words, relative to MC2884” value (“cell death induction … relative to MC2884” for short) is “reduced the potency” and the cytotoxicity at 3 µM came to 9%.
Consider `O=C1/C(=C/c2cc(Br)cc(Br)c2)CN(Cc2ccccc2)C/C1=C\c1cc(Br)cc(Br)c1` [MC2910, 1-benzyl-3,5-bis(3,5-dibromobenzylidene)piperidin-4-one], for which the cytotoxicity at 3 µM was 4.2% in the data set on NB4 cells [1] and 2.4% in the data set on SHSY5Y cells.
Taken in the same sequence, the figures for `O=C1/C(=C/c2cccc(Br)c2)CN(C(=O)c2ccccc2)C/C1=C\c1cccc(Br)c1` [MC3146, 1-benzoyl-3,5-bis(3-bromobenzylidene)piperidin-4-one] were 13.2% and 5.6%.
Turning to `O=C1/C(=C/c2cccc(Br)c2)CN(CCc2ccccc2)C/C1=C\c1cccc(Br)c1` [MC3269, 3,5-bis(3-bromobenzylidene)-1-phenethylpiperidin-4-one], the cytotoxicity at 3 µM with NB4 cells [1] was found to be 62.5%. Also, in the data set with SHSY5Y cells, the “cell death induction … relative to MC2884” value was “same potency as MC2884” and the cytotoxicity at 3 µM came to 19.2%.
For the compound `O=C1/C(=C/c2cccc(Br)c2)CSC/C1=C\c1cccc(Br)c1` [MC2913, 3,5-bis(3-bromobenzylidene)dihydro-2H-thiopyran-4(3H)-one], the cytotoxicity at 3 µM in the data set with NB4 cells [1] is 52.7%; with SHSY5Y cells it was 23.9%.
Turning to `CC1=C(/C=C/C(C)=C/C=C/C(C)=C/C(=O)O)C(C)(C)CCC1` [ATRA, All Trans Retinoic Acid], the “apoptosis in ex vivo APL-R blasts” value in data set [7] is given as “did not undergo efficient apoptosis”.
For the compound `O=C1/C(=C/c2ccc(Br)cc2)CN(Cc2ccccc2)C/C1=C\c1ccc(Br)cc1` [MC2909, 1-benzyl-3,5-bis(4-bromobenzylidene)piperidin-4-one], the “modulation of histone acetylation and EZH2 deregulation” value in [8] was “unable to modulate”. This compound also registered a cytotoxicity at 3 µM in the data set with NB4 cells [1] of 8.8%. In the data set on SHSY5Y cells, the “cell death induction … relative to MC2884” value is reported as “less potent or not active” and the cytotoxicity at 3 µM was found to be 4.7%.
Take `O=C1/C(=C/c2cccc(Br)c2)CCC/C1=C\c1cccc(Br)c1` [MC2911, 2,6-bis((E)-3-bromobenzylidene)cyclohexan-1-one]: the figures for the cytotoxicity at 3 µM in the data set on NB4 cells [1] and in the data set on SHSY5Y cells were 0.76% and 0.8%, respectively.
Turning to `O=C1/C(=C/c2ccccc2Br)CN(Cc2ccccc2)C/C1=C\c1ccccc1Br` [MC2908, 1-benzyl-3,5-bis(2-bromobenzylidene)piperidin-4-one], the values for the cytotoxicity at 3 µM in the data set with NB4 cells [1] and in the data set with SHSY5Y cells were 30.3% and 9.2%, respectively.
Consider `O=C1/C(=C/c2cccc(Br)c2)CN(C(=O)CCc2ccccc2)C/C1=C\c1cccc(Br)c1` [MC3187, 3,5-bis(3-bromobenzylidene)-1-(3-phenylpropanoyl) piperidin-4-one], for which the cytotoxicity at 3 µM in the data set with NB4 cells [1] stood at 28.9%. In addition, in the data set with SHSY5Y cells, the “cell death induction … relative to MC2884” value is “slightly more potent than MC2884” and the cytotoxicity at 3 µM was 19.9%.
For `O=C1/C(=C/c2ccc(O)cc2Br)CN(Cc2ccccc2)C/C1=C\c1ccc(O)cc1Br` [MC3395, 1-benzyl-3,5-bis((E)-2-bromo-4-hydroxybenzylidene)piperidin-4-one], the figures for the cytotoxicity at 3 µM with NB4 cells [1] and with SHSY5Y cells were 0.53% and 1%, respectively.
Regarding `O=C1/C(=C/c2cccc(Br)c2)CN(CCCc2ccccc2)C/C1=C\c1cccc(Br)c1` [MC3272, 3,5-bis(3-bromobenzyliden)-1-(3-phenylpropyl) piperidin-4-one], the cytotoxicity at 3 µM with NB4 cells [1] was determined as 29.2%; with SHSY5Y cells, 7%.
Regarding `O=C(/C=C/c1ccc(Br)cc1)/C=C/c1ccc(Br)cc1` [MC2886, (1E,4E)-1,5-bis(4-bromophenyl)penta-1,4-dien-3-one], the cytotoxicity at 3 µM was determined as 0.56% with NB4 cells [1] and 1.2% in the data set with SHSY5Y cells.

What is called AUC is concentration integrated over time. Higher therefore signals high exposure.
